Test results taken from patent US6413739B1, “AMPA-binding human GLuR3 receptors” (priority 1992, dated 2002).

Legend:
[1] = system: human GluR3B receptor; assay: binding assays with membrane preparations of engineered mammalian cells
Source text: This feature, coupled with the medically significant connection between AMPA-type receptors and neurological disorders and disease indicate that the present receptors, as well as AMPA-binding fragments and variants thereof, will serve as valuable tools in the screening and discovery of ligands useful to modulate in vivo interactions between such receptors and their natural ligand, glutamate. Thus, a key aspect of the present invention resides in the construction of cells that are engineered genetically to produce human GluR3 receptor, to serve as a ready and homogeneous source of receptor for use in in vitro ligand binding and/or channel activation assays.

[2] = system: human GluR3A receptor; assay: AMPA-binding assay, membranes of transfected COS-1 cells
Protocol: (§1) Transfected cells in the frozen state were resuspended in ice-cold distilled water using a hand homogenizer, sonicated for 5 seconds, and then centrifuged for 20 minutes at 50,000 g. The supernatant was discarded and the membrane pellet stored frozen at −70 C.
(§2) COS cell membrane pellets were suspended in ice cold 50 mM Tris-HCl (pH 7.55, 5 C) and centrifuged again at 50,000 g for 10 minutes in order to remove endogenous glutamate that would compete for binding. Pellets were resuspended in ice cold 50 mM Tris-HCl (pH 7.55) buffer and the resultant membrane preparation was used as tissue source for binding experiments described below. Proteins were determined using the Pierce Reagent with BSA as standard.
Binding assays were then performed, using an amount of COS-derived membrane equivalent to from 25-100 ug as judged by protein determination and selected radiolabelled ligand. In particular, for AMPA-binding assays, incubation mixtures consisted of 25-100 ug tissue protein and D,L-alpha-[5-methyl-3H]amino-3-hydroxy-5-methylisoxazole-4-propionic acid (3H-AMPA, 27.6 Ci/mmole, 10 nM final) with 0.1 M KSCN and 2.5 mM CaCl2 in the 1 ml final volume. Non-specific […] binding was determined in the presence of 1 mM L-glutamate. […] Pellets were washed twice in 6 ml of the cold incubation buffer, then 5 ml of Beckman Ready-Protein Plus scintillation cocktail was added, for counting.

[3] = system: human GluR3 receptor; assay: ligand binding assay (NMDA), membranes of transfected COS cells; conditions: COS cell membranes
[4] = system: human GluR3A receptor; assay: kainate-binding assay, membranes of transfected COS-1 cells; conditions: COS cell membranes; [vinylidene-3H] kainic acid 5 nM
Protocol: as §1, §2
For kainate-binding assays, incubation mixtures consisted of 25-100 ug tissue protein and [vinylidene-3H] kainic acid (58 Ci/mmole, 5 nM final) in the cold incubation buffer, 1 ml final volume. Non-specific binding was determined in the presence of 1 mM L-glutamate. Samples were incubated as for the AMPA-binding assays, and bound and free ligand were separated by rapid filtration using a Brandel cell harvester and GF/B filters pre-soaked in ice-cold 0.3% polyethyleneimine. Filters were washed twice in 6 ml of the cold incubation buffer, then placed in scintillation vials with 5 ml of Beckman Ready-Protein Plus scintillation cocktail for counting.

## Cc1onc(O)c1CC(N)C(=O)O (stereo not drawn) [AMPA, alpha-amino-3-hydroxy-5-methyl-isoxazole-4propionate]
[1]
  selective binding relative to kainate and NMDA: bind selectively
[2]; 10 nM [3H]-AMPA, COS cell membranes, non-specific binding with 1 mM L-glutamate, FIG. 7
  specific binding: 25-30 fmole/mg protein
[2]; human GluR3A, membrane preparations
  selective binding relative to kainate and NMDA: bind selectively

## CN[C@H](CC(=O)O)C(=O)O [NMDA, N-methyl-D-aspartate]
[3]
  binding of NMDA: little or no demonstrable binding

## C=C(C)[C@H]1CN[C@H](C(=O)O)[C@H]1CC(=O)O [kainate, kainic acid]
[4]
  binding of kainate: little or no demonstrable binding
